In article PMC4559854 (Proteins, 2009):

Assays:
PSA = PSA (Homo sapiens, UniProt P07288); assay: Substrate hydrolysis assay of Abz-peptide spots with purified PSA; assay type: biochemical; details: for hydrolysis / substrate activity (in words): compared with c0
chymotrypsin = details: selectivity for PSA; cited from earlier work

Sequence of PSA (P07288 25-261): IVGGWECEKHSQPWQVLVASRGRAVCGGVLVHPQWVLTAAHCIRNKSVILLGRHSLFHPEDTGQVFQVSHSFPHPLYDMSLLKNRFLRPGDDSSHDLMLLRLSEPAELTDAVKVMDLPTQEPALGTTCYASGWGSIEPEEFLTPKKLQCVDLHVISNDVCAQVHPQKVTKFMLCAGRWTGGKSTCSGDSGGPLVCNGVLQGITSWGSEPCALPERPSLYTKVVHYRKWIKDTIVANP

| hydrolysis / substrate activity (in words) (PSA) | increase in the hydrolysis rate compared to c0 (PSA; versus c0) | Substance | hydrolysis by chymotrypsin (chymotrypsin) |
| --- | --- | --- | --- |
| high activity for PSA hydrolysis | 2 fold | GSAKLQ [c7] | – |
| high substrate activity | – | GSSKYQ [c3] | – |
| – | – | HSSKLQ | no detectable hydrolysis |

| Substance | hydrolysis / substrate activity (in words) (PSA) | increase in the hydrolysis rate compared to c0 (PSA; versus c0) | hydrolysis by chymotrypsin (chymotrypsin) |
| --- | --- | --- | --- |
| GSSKPQ [c4] | almost complete loss of hydrolysis activity | – | – |
